According to BindingDB's records for doi:10.7270/Q23T9FMP (The Scripps Research Institute Molecular Screening Center, 2007):

Target: Steroidogenic factor 1 (Homo sapiens, UniProt Q13285)
Test: activation of SF-1 LBD reporter – cell-based, CHO-K1, Gal4-SF-1 LBD, luciferase luminescence, dose response (AID 692)
Details: not given

Sequence of Steroidogenic factor 1 (Q13285 whole entry, the tested form may be a part): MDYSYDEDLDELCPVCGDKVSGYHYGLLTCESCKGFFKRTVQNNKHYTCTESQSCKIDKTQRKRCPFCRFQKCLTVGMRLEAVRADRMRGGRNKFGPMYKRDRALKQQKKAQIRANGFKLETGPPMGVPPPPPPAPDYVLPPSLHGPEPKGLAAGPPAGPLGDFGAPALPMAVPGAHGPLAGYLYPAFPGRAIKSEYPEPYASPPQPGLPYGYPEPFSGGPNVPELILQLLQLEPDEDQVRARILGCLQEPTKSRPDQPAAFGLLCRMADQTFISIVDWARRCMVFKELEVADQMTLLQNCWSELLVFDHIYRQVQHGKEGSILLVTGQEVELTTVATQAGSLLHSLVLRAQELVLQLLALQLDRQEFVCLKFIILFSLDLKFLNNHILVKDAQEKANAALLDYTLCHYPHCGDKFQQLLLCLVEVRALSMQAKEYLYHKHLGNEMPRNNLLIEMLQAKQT

With COc1ccc(CCC(=O)Nc2ccc(-c3noc(-c4ccc(OC)c(OC)c4)n3)cc2)cc1 [MLS000049572] as the molecule, how does the EC50 read?
The EC50 was 1.18 µM.

O=C(Nc1ccc(-c2cn3ccsc3n2)cc1)C1CC1 [MLS000053249] was tested. Which EC50 did it give?
The EC50 was 1.19 µM.

How did the EC50 turn out when COc1ccc(NC(=O)c2ccc3c(c2)OCO3)cc1Cl [MLS000053302] was run?
Its EC50 is 0.589 µM.

With CS(=O)(=O)c1ccc2nc(NC(=O)C3COc4ccccc4O3)sc2c1 (configuration not stated) [MLS000056123] as the molecule, how does the EC50 read?
Its EC50 is 7.74 µM.

How did the EC50 turn out when O=C(Nc1ccc(CN2CCOCC2)cc1)c1cc2ccccc2o1 [MLS000062478] was run?
Its EC50 is 0.72 µM.

CC(C)(C)c1cc(NC(=O)C2CCCO2)no1 (configuration not stated) [MLS000065845] was tested. Which EC50 did it give?
Its EC50 is 2.82 µM.

Which EC50 does the source give for O=C(NCc1ccco1)c1cc2c(s1)CCCCC2 [MLS000065859] here?
The EC50 was 3.1 µM.

How did the EC50 turn out when CCOC(=O)c1cc2cc(OC)ccc2[nH]1 [MLS000071430] was run?
The EC50 was 1.38 µM.

How did the EC50 turn out when C=CCn1c(-c2ccccc2)c[nH]c1=S [MLS000071728] was run?
The EC50 was 1.22 µM.

For CCOc1ccc(OCC)c(NC(=O)CSc2nc3c(c(=O)n(C)c(=O)n3C)n2C(C)C)c1 [MLS000072726], which EC50 is on record?
The EC50 was over 11 µM.

Which EC50 does the source give for Cc1cnc(NC(=O)CSc2nnc(-c3ccccc3)o2)s1 [MLS000077990] here?
Its EC50 is 1.92 µM.

Which EC50 does the source give for CCOC(=O)c1[nH]c2ccc(C)cc2c1N [MLS000079379] here?
Its EC50 is 0.544 µM.

With Nc1nc2c(s1)CCc1c-2cnn1-c1ccccc1 [MLS000085948] as the molecule, how does the EC50 read?
Its EC50 is 0.76 µM.

With CN(C)C=Nc1ncnc2c1cnn2-c1ccc(C(F)(F)F)cn1 [MLS000087855] as the molecule, how does the EC50 read?
The EC50 was over 99 µM.

CCCc1cc(C(=O)Nc2ccccc2SC)no1 [MLS000116378] was tested. Which EC50 did it give?
The EC50 was 4.43 µM.

With CC(=O)c1cccc(NC(=O)c2cnn3ccccc23)c1 [MLS000118777] as the molecule, how does the EC50 read?
The EC50 was 2.2 µM.

Which EC50 does the source give for COc1ccccc1Nc1nc2ccccc2[nH]1 [N-(2-methoxyphenyl)-1H-benzimidazol-2-amine] here?
Its EC50 is 6.47 µM.

CC(=O)Nc1ccc(-c2nc3c(C)cccc3[nH]2)cc1 [SMR000001134] was tested. Which EC50 did it give?
Its EC50 is 1.46 µM.

Which EC50 does the source give for Cc1cc2n(n1)C(c1ccc(N(C)C)cc1)Nc1ccccc1-2 (configuration not stated) [SMR000015202] here?
Its EC50 is over 11 µM.

Which EC50 does the source give for CC1(C)CC(=O)C(=CNc2ccccc2)C(=O)C1 [SMR000054233] here?
The EC50 was 6.83 µM.

O=c1[nH]c2ccccc2nc1-c1cccs1 [SMR000068248] was tested. Which EC50 did it give?
The EC50 was 7.84 µM.

For CN(C)C(=O)CSc1nnc(C23CC4CC(CC(C4)C2)C3)o1 [SMR000077996], which EC50 is on record?
The EC50 was 6.66 µM.

CCCCC1CCC(c2nc(-c3ccccn3)no2)CC1 (configuration not stated) [SMR000105468] was tested. Which EC50 did it give?
The EC50 was 0.543 µM.

CC1(C)CC(=O)C(=CNc2ccc3[nH]ncc3c2)C(=O)C1 [SMR000111453] was tested. Which EC50 did it give?
Its EC50 is over 11 µM.

With COCCn1c(C)cc(C(=O)COC(=O)C23CC4CC(CC(O)(C4)C2)C3)c1C [[2-[1-(2-methoxyethyl)-2,5-dimethylpyrrol-3-yl]-2-oxoethyl] 3-hydroxyadamantane-1-carboxylate] as the molecule, how does the EC50 read?
Its EC50 is 0.813 µM.

Same assay, conditions: inactive by the depositor's call

How did the EC50 turn out when Cc1cc(C(=O)Nc2sc3c(c2C#N)CCC(C(C)(C)C)C3)no1 (configuration not stated) [MLS000087312] was run?
The EC50 was 10.1 µM.

How did the EC50 turn out when CCOc1ccc(OCC)c(NC(=O)C2CCCN2S(=O)(=O)c2cccc3cccnc23)c1 (configuration not stated) [MLS000119093] was run?
The EC50 was 12.2 µM.
